The results in this text go back to US9066518B2, “Heterocyclic compounds as pesticides” (Bayer CropScience AG, priority 2009, dated 2015).

The nature of data set [1]: logP determination (neutral / HCOOH). To be noted: for chromatographic logP: HCOOH (formic acid).
Data set [2] relates to green peach aphid (Myzus persicae). The data set is described as follows: Myzus test (spray treatment). It counts as in vivo. To be noted: foliar, 144 h, after 6 days, Chinese cabbage leaf discs, read-out: activity (effect in %, aphids killed); for pest or weed control at 500 g/ha: application rate 500 g/ha. The procedure:
Solvents: 78 parts by weight of acetone
• 1.5 parts by weight of dimethylformamide Emulsifier 0.5 part by weight of alkylaryl polyglycol ether
To produce a suitable preparation of active compound, 1 part by weight of active compound is mixed with the stated amounts of solvents and emulsifier, and the concentrate is diluted with emulsifier-containing water to the desired concentration. Discs of leaves of Chinese cabbage (Brassica pekinensis) which are infested by all stages of the green peach aphid (Myzus persicae) are sprayed with an active compound preparation of the desired concentration.
After 6 days, the effect in % is determined. 100% means that all aphids have been killed; 0% means that none of the aphids has been killed.

SMILES strings stand for the structures.

`CC(F)(F)c1ccc(-c2cnn(-c3cccnc3)c2)nc1` [Example 40] yielded a chromatographic logP in data set [1] (logP (HCOOH), HCOOH) of 2.04. Besides, the pest or weed control at 500 g/ha in data set [2] stood at 90%.
On the same counts, the results for `Clc1cccnc1-n1ccc(-c2cnn(-c3cccnc3)c2)n1` [Example 42] are 1.81 and 100%.
The corresponding values for `FC(F)(F)c1ccc(-n2ccc(-c3cnn(-c4cccnc4)c3)n2)nc1` [Example 43] are 3.22 and 90%.
The corresponding values for `COc1cc(OC)nc(-c2nccc(-c3cnn(-c4cccnc4)c3)n2)n1` [Example 44] are 1.56 and 100%.
Regarding `COC(OC)c1cccc(-c2cnn(-c3cccnc3)c2)n1` [Example 45], in data set [1] (logP (HCOOH), HCOOH), the chromatographic logP came out at 1.75. Besides, in data set [2], the pest or weed control at 500 g/ha amounted to 100%.
On the same counts, the results for `c1cnc(-c2nccc(-c3cnn(-c4cccnc4)c3)n2)nc1` [Example 46] are 0.86 and 100%.
The corresponding values for `c1ccc(-c2csc(-c3cnn(-c4cccnc4)c3)n2)nc1` [Example 47] are 1.55 and 100%.
The corresponding values for `FC(F)CNc1cccc(-c2cnn(-c3cccnc3)c2)n1` [Example 48] are 1.52 and 100%.
In the case of `COCC1(c2cccc(-c3cnn(-c4cccnc4)c3)n2)OCCCO1` [Example 49], the logP in data set [1] (logP (neutral), neutral) worked out at 1.69. Besides, the pest or weed control at 500 g/ha in data set [2] came to 100%.
For the compound `FC(F)(F)c1ccc(-c2cnn(-c3cccnc3)c2)cc1` [Example 50], the chromatographic logP in data set [1] (logP (HCOOH), HCOOH) was determined as 2.98. In addition, the pest or weed control at 500 g/ha in data set [2] came to 90%.
The corresponding values for `Clc1ccc(-c2cnn(-c3cccnc3)c2)cc1` [Example 51] are 2.71 and 90%.
On the same counts, the results for `c1cncc(-n2cc(-c3cccc(-n4nccn4)n3)cn2)c1` [Example 54] are 1.63 and 100%.
Consider `c1cncc(-n2cc(-c3cccc(C4=NOCCO4)n3)cn2)c1` [Example 55], for which the chromatographic logP in data set [1] (logP (HCOOH), HCOOH) worked out at 1.4. Besides, the pest or weed control at 100 g/ha in data set [2] (application rate 100 g/ha) was 100%.
The compound `CS(=O)(=O)c1cccc(-c2cnn(-c3cccnc3)c2)n1` [Example 56] yielded a chromatographic logP in data set [1] (logP (HCOOH), HCOOH) of 1.31. For the same compound, the pest or weed control at 500 g/ha in data set [2] was 100%.
On the same counts, the results for `O=C(NCC(F)(F)F)c1cccc(-c2cnn(-c3cccnc3)c2)n1` [Example 57] are 2.12 and 100%.
In data set [1] (logP (HCOOH), HCOOH), `CN1CCOC(c2cccc(-c3cnn(-c4cccnc4)c3)n2)=N1` [Example 58] came in with a chromatographic logP of 1.54. In data set [1] (logP (neutral), neutral), this compound displayed a logP of 1.68. Also, the pest or weed control at 500 g/ha in data set [2] came to 100%.
On the same counts, the results for `Fc1cncc(-n2cc(-c3cccc(C(F)(F)F)n3)cn2)c1` [Example 59] are 3.1, 3.14 and 100%.
On the same counts, the results for `c1cncc(-n2cc(-c3cccc(C4OCC5(CC5)CO4)n3)cn2)c1` [Example 60] are 1.97, 2.12 and 100%.
Regarding `c1cncc(-n2cc(-c3cccc(-n4ccnn4)n3)cn2)c1` [Example 61], the chromatographic logP in data set [1] (logP (HCOOH), HCOOH) is 1.68. In addition, the pest or weed control at 500 g/ha in data set [2] was determined as 90%.
On the same counts, the results for `c1cncc(-n2cc(-c3cccc(-c4noc(C5CC5)n4)n3)cn2)c1` [Example 62] are 2.16 and 100%.
On the same counts, the results for `FC(F)c1cccc(-c2cnn(-c3cccnc3)c2)n1` [Example 63] are 2.02 and 100%.
The corresponding values for `c1cncc(-n2cc(-c3cccc(-c4nc[nH]n4)n3)cn2)c1` [Example 64] are 1.14 and 100%.
In data set [1] (logP (HCOOH), HCOOH), `ClC1(c2cccc(-c3cnn(-c4cccnc4)c3)n2)CC1` [Example 65] had a chromatographic logP of 3.22. Moreover, the pest or weed control at 500 g/ha in data set [2] was determined as 90%.
In the case of `CC(C)C(F)(F)c1cccc(-c2cnn(-c3cccnc3)c2)n1` [Example 66], the logP in data set [1] (logP (neutral), neutral) worked out at 3.22. Also, in data set [2], the pest or weed control at 500 g/ha came to 100%.
With `CC(C)C(=O)c1cccc(-c2cnn(-c3cccnc3)c2)n1` [Example 67], the logP in data set [1] (logP (neutral), neutral) is 2.84. For the same compound, the pest or weed control at 500 g/ha in data set [2] came to 100%.
Regarding `c1cc(-c2cnn(-c3cncnc3)c2)nc(C2OCCCO2)c1` [Example 68], in data set [1] (logP (HCOOH), HCOOH), the chromatographic logP is 1.51. Besides, the logP in data set [1] (logP (neutral), neutral) stood at 1.56. Also, the pest or weed control at 500 g/ha in data set [2] is 100%.
Regarding `CC1(c2cccc(-c3cnn(-c4cccnc4)c3)n2)OCCCO1` [Example 69], in data set [1] (logP (HCOOH), HCOOH), the chromatographic logP worked out at 1.78. In addition, in data set [2], the pest or weed control at 500 g/ha is 100%.
The corresponding values for `Cc1nc(-c2cccc(-c3cnn(-c4cccnc4)c3)n2)no1` [Example 70] are 1.66 and 100%.
In data set [1] (logP (HCOOH), HCOOH), `CC1CC(C)OC(c2cccc(-c3cnn(-c4cccnc4)c3)n2)O1` (centres unmarked) [Example 71] had a chromatographic logP of 2.37. Also, in data set [2], the pest or weed control at 500 g/ha came out at 100%.
Consider `CC1OC(c2cccc(-c3cnn(-c4cccnc4)c3)n2)OC1C` (centres unmarked) [Example 72], for which the “logP (HCOOH)” value in data set [1] (HCOOH) stood at 2.09. For the same compound, in data set [1] (logP (HCOOH), HCOOH), the chromatographic logP amounted to 2.13. For the same compound, the pest or weed control at 500 g/ha in data set [2] came out at 100%.
Turning to `Fc1cncc(-n2cc(-c3cccc(C4OCCCO4)n3)cn2)c1` [Example 73], the chromatographic logP in data set [1] (logP (HCOOH), HCOOH) is 2.12. In data set [1] (logP (neutral), neutral), this compound had a logP of 2.13. Further, in data set [2], the pest or weed control at 500 g/ha came out at 100%.
The compound `FC(F)(F)c1nc(-c2cccc(-c3cnn(-c4cccnc4)c3)n2)no1` [Example 74] registered a chromatographic logP in data set [1] (logP (HCOOH), HCOOH) of 2.77. The pest or weed control at 500 g/ha in data set [2] came to 100%.
On the same counts, the results for `C=C1COC(c2cccc(-c3cnn(-c4cccnc4)c3)n2)OC1` [Example 75] are 1.9 and 100%.
Consider `c1cncc(-n2cc(-c3cccc(-c4ncco4)n3)cn2)c1` [Example 76], for which the chromatographic logP in data set [1] (logP (HCOOH), HCOOH) worked out at 1.57. Further, the logP in data set [1] (logP (neutral), neutral) turned out to be 1.69. Moreover, the pest or weed control at 500 g/ha in data set [2] turned out to be 100%.
In turn, `Cc1ccn(-c2cccc(-c3cnn(-c4cccnc4)c3)n2)n1` [Example 77] returned a chromatographic logP in data set [1] (logP (HCOOH), HCOOH) of 2.51. Further, in data set [2], the pest or weed control at 500 g/ha turned out to be 100%.
Consider `CC(=O)NC(NO)c1cccc(-c2cnn(-c3cccnc3)c2)n1` (centres unmarked) [Example 78], for which, in data set [1] (logP (HCOOH), HCOOH), the chromatographic logP came to 1.49. The pest or weed control at 500 g/ha in data set [2] was found to be 100%.
On the same counts, the results for `Cc1cnn(-c2cccc(-c3cnn(-c4cccnc4)c3)n2)c1` [Example 79] are 2.59 and 100%.
On the same counts, the results for `CCOc1cc(OCC)nc(-c2nccc(-c3cnn(-c4cccnc4)c3)n2)n1` [Example 82] are 2.23 and 100%.
In turn, `CN(C)C(=O)c1nc(-c2cnn(-c3cccnc3)c2)cs1` [Example 83] returned a chromatographic logP in data set [1] (logP (HCOOH), HCOOH) of 1.51. Besides, the pest or weed control at 500 g/ha in data set [2] was determined as 100%.
On to `c1cncc(-n2cc(-c3cccc(C4=NCCO4)n3)cn2)c1` [Example 84], for which the chromatographic logP in data set [1] (logP (HCOOH), HCOOH) was 0.9. This compound also showed a logP in data set [1] (logP (neutral), neutral) of 1.45. The pest or weed control at 500 g/ha in data set [2] amounted to 100%.
Take `COCC(=O)c1cccc(-c2cnn(-c3cccnc3)c2)n1` [Example 85, 2-Methoxy-1-[6-(1-pyridin-3-yl-1H-pyrazol-4-yl)pyridin-2-yl]ethanone]: the logP in data set [1] (HCOOH, logP (HCOOH)) stood at 1.66. The pest or weed control at 500 g/ha in data set [2] stood at 100%.
`Nc1cccc(-c2cnn(-c3cccnc3)c2)n1` [Example 86] had a chromatographic logP in data set [1] (logP (HCOOH), HCOOH) of 0.29. The same compound showed a logP in data set [1] (logP (neutral), neutral) of 1.3. Moreover, the pest or weed control at 500 g/ha in data set [2] worked out at 100%.
The corresponding values for `O=C(NCC(F)(F)F)c1ccc(-c2cnn(-c3cccnc3)c2)nc1` [Example 87] are 1.53, 1.69 and 90%.
Compound `N#Cc1cncc(-n2cc(-c3cccc(-c4ncccn4)n3)cn2)c1` [Example 88] displayed a chromatographic logP in data set [1] (logP (HCOOH), HCOOH) of 1.91. For the same compound, in data set [2], the pest or weed control at 500 g/ha was found to be 100%.
The corresponding values for `O=c1ccccn1-c1cccc(-c2cnn(-c3cccnc3)c2)n1` [Example 89] are 1.37 and 100%.
On to `c1cncc(-n2cc(-c3cccc(C4OCC5(CCC5)O4)n3)cn2)c1` (centres unmarked) [Example 90], for which, in data set [1] (logP (HCOOH), HCOOH), the chromatographic logP stood at 2.37. For the same compound, in data set [1] (logP (neutral), neutral), the logP was found to be 2.53. Moreover, the pest or weed control at 500 g/ha in data set [2] worked out at 100%.
For `COC(=N)c1cccc(-c2cnn(-c3cccnc3)c2)n1` [Example 91], in data set [1] (logP (HCOOH), HCOOH), the chromatographic logP turned out to be 0.84. Also, in data set [2], the pest or weed control at 500 g/ha turned out to be 100%.
In data set [1] (logP (neutral), neutral), `COCC(F)c1cccc(-c2cnn(-c3cccnc3)c2)n1` (centres unmarked) [Example 92] registered a logP of 1.98. The pest or weed control at 500 g/ha in data set [2] was found to be 90%.
In the case of `c1cnc(-c2ccnn2-c2cnn(-c3cccnc3)c2)nc1` [Example 93], in data set [1] (logP (HCOOH), HCOOH), the chromatographic logP stood at 1.16. The pest or weed control at 500 g/ha in data set [2] came to 100%.
In data set [1] (logP (HCOOH), HCOOH), `CC(=O)Nc1cccc(-c2cnn(-c3cccnc3)c2)n1` [Example 94] gave a chromatographic logP of 1.31. Also, in data set [2], the pest or weed control at 500 g/ha worked out at 100%.
On the same counts, the results for `c1cncc(-n2cc(-c3nccs3)cn2)c1` [Example 95] are 1.32 and 90%.
In data set [1] (logP (HCOOH), HCOOH), `c1cncc(-n2cc(-c3cccc(-c4nnn[nH]4)n3)cn2)c1` [Example 96] yielded a chromatographic logP of 1.36. In data set [1] (logP (neutral), neutral), this compound registered a logP of 0.32. Also, the pest or weed control at 500 g/ha in data set [2] came out at 90%.

As a reminder, the chromatographic logP is a lipophilicity value derived from retention on a column. The logP is a log measure of how a compound divides between an organic and an aqueous phase. Higher therefore signals a more lipophilic compound.
